Data published in publication PMC9818267, “Brain Natriuretic Peptide Protects Cardiomyocytes from Apoptosis and Stimulates Their Cell Cycle Re-Entry in Mouse Infarcted Hearts” (Cells, 2022).
No end group written: not given here.

How the values were obtained:
[1] = tested on: Troponin I+ GFP+ cells; experiment: Flow cytometry count of Troponin I+ GFP+ cells in Myh6 MerCreMer hearts; type: in vivo, mouse; details: unmanipulated adult Myh6 MerCreMer mice, tamoxifen then BNP, two weeks after first BNP injection, vs saline
Procedure: Before surgery and/or BNP treatments, adult Myh6 MerCreMer mice (6-week-old) were injected with Tamoxifen (Sigma, Merck, Darmstadt, Germany, T5648) at 40 mg/kg to activate the Cre recombinase. Tamoxifen was dissolved in ethanol to a concentration of 100 mg/mL and emulsified in peanut oil to a final concentration of 10 mg/mL. A total of 1 mg Tamoxifen/25 g body weight was injected intraperitoneally (i.p) to adult mice one time. Two weeks after tamoxifen injection, 90–95% of pre-existing CMs expressed the GFP protein [11].
BNP was injected into infarcted adults, and unmanipulated neonatal and adult mice. Directly after surgery, NaCl (saline) or BNP (1.3 µg/20 g in 20 µL) was injected into the left ventricle cavity. At 24 h after MI, mice were intraperitoneal (ip) injected with BNP (2 µg/20 g mice) or saline every 2 days. C57BL/6 mice were sacrificed 1- and 14 days post-MI and Myh6 MerCreMer mice were sacrificed 14 days post-MI (Figure 1A). […]
Adult CMs were isolated using enzymatic digestion (see above). […] Cells were analyzed with CytoFLEX (Beckmann Coulter) cytometer and data generated using FlowJo 10 software (10.7.1 version, Becton Dickinson and Compagny, Franklin Lakes, NJ, USA). […] Cells were stained with DAPI and only the DAPI negative cells (living cells) were analyzed.

[2] = tested on: cardiomyocytes (CMs); experiment: Cardiomyocyte isolation (Langendorff-Free method) and counting; type: in vivo, mouse
Procedure: (§1) BNP was injected into infarcted adults, and unmanipulated neonatal and adult mice. Directly after surgery, NaCl (saline) or BNP (1.3 µg/20 g in 20 µL) was injected into the left ventricle cavity. At 24 h after MI, mice were intraperitoneal (ip) injected with BNP (2 µg/20 g mice) or saline every 2 days. C57BL/6 mice were sacrificed 1- and 14 days post-MI and Myh6 MerCreMer mice were sacrificed 14 days post-MI (Figure 1A). Neonatal C57BL/6 mice (3 days after birth) were injected ip with NaCl or BNP every two days (1 µg/2 g; Bachem; synthetic mouse BNP (1–45) peptide (catalog number H-7558)). Mice were sacrificed 11 days after birth (Figure 1B). Eight week old C57 BL/6 mice or Myh6 MerCreMer unmanipulated mice were injected ip with BNP (2 µg/20 g mice) or NaCl every two days (Figure 1C). Two weeks after the first injection, mice were sacrificed. To assess for the implication of the ERK signaling pathway in the BNP effect on CMs, PD0325901 (60 µg/20 g mice in 80 µL) was administered by gavage in adult unmanipulated mice 1 h before BNP injection (2 µg/20 g mice).
CM isolations were performed thanks to the Langendorff-Free method. […] Thereafter, the heart was removed from the chest and the left ventricle was perfused with enzymatic solution containing collagenase II (120 U/mL), collagenase IV (120 U/mL) (Worthington, Biochemical Corporation, USA) and protease XIV (0.05 mg/mL or 0.175 U/mL) (Sigma-Aldrich, Merck, Darmstadt, Germany). In each experiment, a full digestion of the heart was obtained. After digestion, cardiac cells were dissociated by gentle pipetting, filtered and collected after 25 min sedimentation. For infarcted hearts, the tissue was separated into the three zones (ZI, BZ and RZ). The three different areas were weighted before gentle pipetting.
Total CM cell numbers were counted before sedimentation by two different people and in blinded experiments. The CMs were easily identified based on their size and on Troponin I expression (for all experiments with flow cytometry analysis). Round and rod-shaped CMs were counted and their numbers related to the heart, to the mg of tissue and also to the control hearts (saline-injected hearts) always performed in parallel the same day than BNP-treated hearts (i.e., with the same digestion buffer).

[3] = tested on: cleaved caspase-3; experiment: Western blot cleaved caspase-3 in infarct zone; type: in vivo, mouse; details: ZI one day after MI, BNP vs saline
Description: At sacrifice, mice were weighted, the heart excised and weighted. The apex was embedded into OCT and slowly frozen for immunohistochemistry analysis. For quantitative RT-PCR (qRT-PCR) and/or Western blot analysis, the rest of the heart was quickly frozen in N2. Hearts from infarcted animals were separated into 3 zones for molecular and cellular analysis including CM isolation: (1) the infarction zone (ZI), (2) the border zone (BZ) and (3) the remote zone (RZ). The different areas were processed under microscopy: the ZI area is easily detectable by the color and the presence of the suture, the BZ corresponds to 0.5 mm tissue around the ZI and the rest of the heart is the RZ.
Total proteins were extracted from CMs isolated from adult infarcted and unmanipulated neonatal and adult hearts. Proteins were transferred to nitrocellulose membranes (Biorad) before incubation with primary antibodies overnight at 4 °C. Secondary antibodies were added 1 h at RT in the dark (Supplementary File S1). The signal was detected and quantified with the Odyssey infrared imaging system (LI-COR. Biosciences, Bad Homburg, Germany). All results were normalized to the tubulin protein level or to the total protein level thanks to stainings with the Revert 700 Total protein Stain (LI-COR).

[4] = tested on: cGMP; details: BNP-treated infarcted mice, cited from earlier work
Procedure: In previous work, we followed the BNP kinetic by measuring the cGMP level in the hearts and plasma of BNP-treated infarcted mice. 30 min after BNP injections, the cGMP level is increased in the hearts of treated mice and returns to normal 1 h after injection. In the circulation of treated mice, cGMP level is increased from 1 h to 24 h after ...

[5] = tested on: ERK; experiment: Western blot pERK/ERK in CMs isolated from BNP-treated hearts; type: in vivo, mouse; details: CMs isolated from BNP-treated adult unmanipulated hearts (injection 2–3 h before isolation), vs saline
Procedure: as §1
CM isolations were performed thanks to the Langendorff-Free method. […]
Total proteins were extracted from CMs isolated from adult infarcted and unmanipulated neonatal and adult hearts. […] The signal was detected and quantified with the Odyssey infrared imaging system (LI-COR. Biosciences, Bad Homburg, Germany). […]

In the case of “Brain Natriuretic Peptide (SQGSTLRVQQRPQNSKVTHISSCFGHKIDRIGSVSRLGCNALKLL; not fully specified; ends and bridges not checked; UniProt P40753 77-121, looked up) [BNP, synthetic mouse BNP (1–45) peptide (Bachem, catalog number H-7558)]”, the “increase of number of Troponin I+ GFP+ cells” value [1] is reported as 28%, the “CM number per mg tissue” value ([2]; BZ and RZ of infarcted hearts, BNP vs saline) is reported as “No change” and the “CM cell number per heart” value ([2]; BZ or RZ of infarcted hearts, BNP vs saline) is reported as “No increase”. The “increase of number of CMs per mg tissue” value ([2]; ZI of infarcted hearts, BNP vs saline) was 2 fold, the “increase of number of CMs related to saline-injected littermates” value (“increase of number of CMs related” for short) ([2]; ZI of infarcted hearts, same-day isolation with same enzymatic cocktail) was 2.2 fold and the “increase of total number of CMs per heart” value (“increase … per heart” below) ([2]; infarct area (ZI) of infarcted adult hearts, BNP 2 µg/20 g ip every 2 days, vs saline) was 81%. For the same substance, the “CM cell number in NPR-A deficient hearts” value ([2]; unmanipulated adult NPR-A −/− mice, saline n = 4, BNP n = 3) was “did not change”, the “increase of number of CMs related” value ([2]; unmanipulated adult hearts) was 28.5% and the “increase … per heart” value ([2]; unmanipulated adult hearts, BNP 2 µg/20 g ip every 2 days for 2 weeks, vs saline) was 19%. The “increase of number of CMs per mg tissue” value ([2]; unmanipulated adult hearts, BNP vs saline) was 26%, the “number of CMs in the presence of ERK inhibitor” value ([2]; unmanipulated adult mice, PD0325901 (60 µg/20 g) 1 h before each BNP injection, 2 weeks, n = 5 per group) was “did not increase” and the “increase of number of CMs related” value ([2]; unmanipulated neonatal hearts) was 23%. For the same substance, the “increase … per heart” value ([2]; unmanipulated neonatal hearts, BNP 1 µg/2 g ip every 2 days from day 3, sacrifice day 11, vs saline) was 18%, the “increase of number of CMs per mg tissue” value ([2]; unmanipulated neonatal hearts, BNP vs saline) was 44% and the “caspase 3 protein level change” value [3] was −42%. The “cGMP level in the hearts” value ([4]; 30 min after injection, returns to normal 1 h after injection) was “increased”, the “cGMP level in the circulation” value ([4]; from 1 h to 24 h after injections) was “increased” and the pERK/ERK ratio increase [5] was 1.6 ×.
